Test results: US20110269828A1, “COMPOSITIONS AND METHODS FOR TREATING AND PREVENTING WEIGHT-RELATED DISORDERS IN COMPANION ANIMALS” (Hill's Pet Nutrition, Inc., priority 2008, published 2011)

Tests used:
GSH:GSSG ratio = test: Change in GSH:GSSG ratio in blood cells of dogs consuming DL-alpha lipoic acid in an extruded food; format: in vivo, dog
Text: (§1) 30 adult, random source, dogs were utilized for this study. Dogs were at least 10 months of age, not pregnant, not lactating and of reasonable body weight prior to start of test. Animals were randomized into 5 groups for dietary treatment with 3 males and 3 females per each group.
All dogs were fed a control food (0 ppm dl-alpha-lipoic acid added) that met or exceeded all recommendations for nutrients as proposed by the American Association of Feed Control Officials (AAFCO 2000) during a 2 week prefeeding period (Table 2). Following the prefeeding period dogs were randomized into 5 treatment groups with one of the following dl-alpha lipoic acid target-inclusions (dry matter basis): 0 ppm, 150 ppm, 1500 ppm, 3000 ppm, 4500 ppm. In all diets, control and alpha lipoic acid, Vitamin E was added and was present at a level of 600-1000 International Units and Vitamin C was added at levels of 100-200 ppm.
Blood was collected aseptically for complete blood count, and blood biochemistry analysis 2 weeks prior to start and again at […], 56, 84, 112, 140 and 168 days of the study. In addition, 15 ml of whole blood was collected for isolation of lymphocytes at day 0, 28 and 84 of the dietary intervention.
Heparinized whole blood was layered onto a 50 ml Accuspin conical centrifuge tube (Sigma Chemical) and an equal volume of Phosphate buffered saline (PBS) was added. Samples were centrifuged at 700 g for 30 minutes without brake. The monocyte layer was harvested, transferred to a 15 ml conical centrifuge tube, resuspended in 1-3 ml of PB, and centrifuged as before (First wash). A second wash was performed as the first wash. Finally, cells were harvested and suspended in perchloric acid (10% w/v) and frozen at −70° C., until analysis.
Samples were transferred from −70° C. freezer into a cooler with dry ice in it. Vials were centrifuged at 12,000 rpm for 5 minutes in a refrigerated centrifuge. An aliquot of supernatant for glutathione (GSH) analysis was transferred to a conical test tube.
Derivatization of the acid soluble extracts was by the method of Reed and coworkers (Fariss et al) as modified by Jones (Jones et al)
Briefly, 150 μL extract or external standards were added into a 1.5 ml Eppendorf tube followed by addition of 20μγ-Glu-Glu internal standard and 50 μL IAA added followed by mixing. The solution was adjusted to pH about 10 (purple color) by using KOH—KHCO3 working solution. Solutions were incubated 1 hr, under room temperature in the dark. Sanger's reagent was added at the same volume as of the total volume and the solution was incubated overnight (20 hrs) in the dark at room temperature.
After incubation, the solution was centrifuged at 12000 rpm for 5 minutes with the supernatant transferred into another 1.5 ml eppendorf tube.
Solvents and separation conditions were as described (Fariss, Jones). Levels of GSH and GSSG were quantified relative to authentic standards. Gamma-glutamyl-glutamate was used as an internal standard to assess derivatization efficiency.
Comparison of values for clinical chemistry, hematology and body weights vs baseline were analyzed by way of paired t-test on SAS for windows with significance set at P<0.05. Means of values at each measured time point were separated by a one-way ANOVA with significance set at P<0.05. The difference in GSH:GSSG between day 84 and baseline were analyzed between groups by way of SAS for windows in a one-way ANOVA with significance set at P<0.05.

dogs [1] = test: Percentage of animals classifying genomically fat; format: in vivo, dog
Text: Table 6 illustrates the percentage of dogs classified as genomically fat after being fed a control diet compared with dogs fed a control plus fish oil and a control plus lipoic acid for 30 days.

[2] = tested on: genes related to cartilage and energy metabolism; test: Differential gene expression profile in whole blood (canine 2 Affymetrix genechips); format: in vivo, dog
Text: A differential gene expression profile was studied between an AAFCO control food, a food containing fish oil, and a food containing lipoic acid. At a minimum of 1.3 fold change, a list of 1212 genes was generated compared to the AAFCO control and 1896 genes compared to the food containing fish oil at d 30.
RNA extraction: Total RNAs were isolated from whole blood samples using the PAXgene RNA isolation kit. All measurements were done with the canine 2 Affymetrix genechips. For statistical analysis, all measurements were normalized with RMA. All analysis was preformed using Partek. An ANOVA t-test was performed for genes that are differentially expressed between the control and test foods were selected based on p-value cutoff 0.1, fold change >+/−1.3.

dogs [3] = test: Body composition (DEXA) of dogs over 90 days; format: in vivo, dog
Text: 30 dogs were used to determine the effect of lipoic acid when compared to an AAFCO control food or a test food containing fish oil.
Table 9 illustrates Dual Energy X-Ray Absorptiometry (DEXA) measurement for dogs after being fed a control diet compared with dogs fed a pet food including lipoic acid for 90 days. The measurement of body fat using DEXA is more accurate than body weight for assessing health. A dog can have a lot of muscle, but be considered “over-weight” by many height/weight charts. The opposite can also be true—a dog can have a lot of fat and little muscle and be “over-fat” but not overweight.

[4] = tested on: type II collagen C-propeptide and carboxy-terminal crosslinked telopeptide fragment of type II collagen; test: Serum cartilage markers by ELISA; format: in vivo, dog; conditions: vs a similar food without lipoic acid, day 0 as covariate
Protocol: Biomarker measurements: Serum cartilage markers were measured using ELISA based kits to determine concentrations of cartilage markers. Day 0 was used as a covariate in the analysis to adjust for baseline values.

dogs [5] = test: 6 month feeding study of dl-alpha-lipoic acid in dogs: body weight, physical examination, safety; format: in vivo
Text: as §1
All dogs were fed a control food (0 ppm dl-alpha-lipoic acid added) that met or exceeded all recommendations for nutrients as proposed by the American Association of Feed Control Officials (AAFCO 2000) during a 2 week prefeeding period (Table 2). […]
Test foods were the sole source of nutrients except for water. […] After dogs were selected and initial body weights taken, a food dose was calculated for each dog based on the expected ME of the food. Initial food dose calculations were based on the maintenance energy requirement (MER) for the dog modified by a factor to account for normal activity as calculated by the following formula: […]
Dogs were weighed weekly and had food doses adjusted as needed in order to feed enough food to maintain their optimal body weight. Optimal body weight was determined to be 3 on a 5 point scale. […] All measures of body weight and food intake were recorded. […]
Comparison of values for clinical chemistry, hematology and body weights vs baseline were analyzed by way of paired t-test on SAS for windows with significance set at P<0.05. […]

plasma metabolites = test: Metabolomics: fold change in metabolites measured in the blood at day 30; format: in vivo, dog
Protocol: Metabolomics: Plasma metabolites were analyzed and were compared as fold change relative to the control fed dogs.

[6] = lipoic acid vs. control, cartilage metabolism
[7] = lipoic acid vs. control, energy metabolism
[8] = lipoic acid vs. fish oil, cartilage metabolism
[9] = lipoic acid vs. fish oil, energy metabolism
[10] = body composition over 90 days, dogs
[11] = dogs fed a food containing lipoic acid
[12] = day 30, day 0 values as covariate

O=C(O)CCCCC1CCSS1 (racemic) [Lipoic Acid, dl-alpha-lipoic acid]
Difference in GSH:GSSG ratio- day 0 to day 84 compared to baseline food (GSH:GSSG ratio; 150 ppm inclusion in extruded food, mean +/- spread): 70 +/− 20 | Difference in GSH:GSSG ratio- day 0 to day 84 compared to baseline food (GSH:GSSG ratio; 1,500 ppm inclusion in extruded food): 24 +/− 7 | Difference in GSH:GSSG ratio- day 0 to day 84 compared to baseline food (GSH:GSSG ratio; 3,000 ppm inclusion in extruded food): 10 +/− 4 | Difference in GSH:GSSG ratio- day 0 to day 84 compared to baseline food (GSH:GSSG ratio; 4,500 ppm inclusion in extruded food): 50 +/− 36 | Effect on GSH to GSSG ratio (GSH:GSSG ratio; chronic feeding in diet): improves the reduced glutathione (GSH) to oxidized glutathione (GSSG) ratio | Genomic resemblance to physically fat dogs (dogs [1]; after a 30 day treatment period, control plus lipoic acid): genomically did not resemble physically fat dogs | Percentage of animals at d 30 that classified fat using genomic markers (dogs [1]; d 30, dogs): 0% | Fold change 12-lipooxygenase [2, 6]: −1.3 | Fold change Chondroitan sulfate synthase 1 [2, 6]: 1.4 | Fold change Facilitated glucose transporter 9 [2, 6]: 1.4 | Fold change Prolyl hydroxylase alpha 1 [2, 6]: 1.4 | Fold change Prolyl hydroxylase alpha 2 [2, 6]: 1.3 | Fold change TIMP1 [2, 6]: 1.3 | Fold change chondroitan sulfate proteoglycan 2 (veriscan) [2, 6]: 1.5 | Fold change heparan sulfate N-deacetylase/N-sulfotransferase 2 [2, 6]: 1.3 | Fold change 5′ AMP alpha 1 [2, 7]: 1.3 | Fold change 5′ AMP beta 1 [2, 7]: 1.3 | Fold change 5′ AMP gamma 2 [2, 7]: 1.4 | Fold change Facilitated glucose transporter 1 [2, 7]: 1.3 | Fold change Facilitated glucose transporter 6 [2, 7]: 1 .3 | Fold change Fatty acid desaturase 1 [2, 7]: 1.9 | Fold change Hexokinase 3 [2, 7]: 1.3 | Fold change PDK4 [2, 7]: 1.4 | Fold change PPAR gamma [2, 7]: 1.3 | Fold change Succinyl CoA ligase alpha [2, 7]: 1.3 | Fold change 12-lipooxygenase [2, 8]: −1.3 | Fold change ADAMTS-2 [2, 8]: −1.3 | Fold change ADAMTS-10 [2, 8]: −1.3 | Fold change ADAMTS-16 [2, 8]: −1.3 | Fold change Chondroitan sulfate synthase 1 [2, 8]: 1.3 | Fold change Facilitated glucose transporter 9 [2, 8]: 1.4 | Fold change Fibronectin 1 [2, 8]: 1.4 | Fold change Lysyl hydroxylase [2, 8]: 1.3 | Fold change MMP2 [2, 8]: −1.3 | Fold change MMP7 [2, 8]: −1.3 | Fold change N-acetylgalactosaminyltransferase 1 [2, 8]: 1.3 | Fold change Transforming growth factor beta receptor 1 [2, 8]: 1.3 | Fold change chondroitan sulfate proteoglycan 2 (veriscan) [2, 8]: 1.5 | Fold change 5′ AMP alpha 1 [2, 9]: 1.3 | Fold change 5′ AMP beta 1 [2, 9]: 1.3 | Fold change 5′ AMP gamma 2 [2, 9]: 1.5 | Fold change Facilitated glucose transporter 1 [2, 9]: 1.3 | Fold change Facilitated glucose transporter 6 [2, 9]: 1.4 | Fold change Hexokinase 3 [2, 9]: 1.3 | Fold change PDK4 [2, 9]: 1.6 | Fold change PPAR gamma [2, 9]: 1.3 | Fold change SREBP-1 [2, 9]: −1.3 | Fold change Succinyl CoA ligase alpha [2, 9]: 1.3 | Fold change Succinyl CoA ligase beta [2, 9]: 1.3 | Fold change cAMP responsice element modulator [2, 9]: 1.3 | Change in weight (dogs [3]; 90 day treatment period, vs control and control plus fish oil): greatest change in weight | Total Weight (dogs [3]; [10]): 13,800 g | Total fat (dogs [3]; [10]): 2788.3 g | Body fat (dogs [3]; [11]): lost fat | Change in fat (dogs [3]; over 90 days, dogs): -587.2 g | Change in weight (dogs [3]; over 90 days, dogs): -637.5 g | Change in carboxy-terminal crosslinked telopeptide fragment of type II collagen [4]: greater decrease | Change in type II collagen C-propeptide [4]: greater decrease | Body weight (dogs [5]; 4500 ppm inclusion group, change appeared to reverse by 6 months): some weight loss occurred initially | Chronic feeding in diet: safety (dogs [5]; dog, in vivo): safe and effective | Change in pyruvate blood levels (plasma metabolites; 30 day treatment period, vs control and control plus fish oil): greatest change in pyruvate blood levels | Kidney markers in blood (plasma metabolites; after 30 days, control plus lipoic acid): decreased kidney markers | Fold change in pyruvate measured in the blood, Lipoic acid vs Control (plasma metabolites; [12]): 0.5379 | Fold change in pyruvate measured in the blood, Lipoic acid vs Fish oil (plasma metabolites; [12]): 0.6274 | Plasma hydroxyproline (plasma metabolites; [11]): reduced in plasma
